How the values were obtained:
Experiment in all cases: drug sensitivity score (DSS2, normalised partial AUC of dose-response, 72 h CellTiter-Glo viability) (DSS (dimensionless)); higher = more sensitive (stronger growth inhibition / cytotoxicity); extreme values may be limits of the assay
22Rv1 = system: 22Rv1
In short: (§1)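 Cells were added to 384-well plates already holding compounds at five doses over a 10,000-fold range: low-passage primary prostate cancer-associated fibroblasts, PF179T, WPMY-1, LNCaP and 22Rv1. Viability was measured 72 h later by CellTiter-Glo 2.0 luminescence and scaled to vehicle and positive-control wells. The drug sensitivity score, computed in BREEZE, is a partial area under the fitted logistic dose–response curve divided by the log of its upper asymptote, with higher scores meaning greater sensitivity.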

CAF#1 = system: CAF#1 (primary prostate cancer-associated fibroblasts of myCAF-like type)
In short: as §1

CAF#2 = system: CAF#2 (primary prostate cancer-associated fibroblasts of iCAF-like type)
In short: as §1

CAF#3 = system: CAF#3 (primary prostate cancer-associated fibroblasts of myCAF-like type)
In short: as §1

CAF#4 = system: CAF#4 (primary prostate cancer-associated fibroblasts of iCAF-like type)
In short: as §1

CAF#5 = system: CAF#5 (primary prostate cancer-associated fibroblasts of myCAF-like type)
In short: as §1

CAF#6 = system: CAF#6 (primary prostate cancer-associated fibroblasts of iCAF-like type)
In short: as §1

CAF#7 = system: CAF#7 (primary prostate cancer-associated fibroblasts of myCAF-like type)
In short: as §1

LNCAP = system: LNCAP
In short: as §1

PF179T = system: PF179T
In short: as §1

WPMY-1 = system: WPMY-1
In short: as §1

Structure (SMILES)	drug sensitivity score (22Rv1)	drug sensitivity score (CAF#1)	drug sensitivity score (CAF#2)	drug sensitivity score (CAF#3)	drug sensitivity score (CAF#4)	drug sensitivity score (CAF#5)	drug sensitivity score (CAF#6)	drug sensitivity score (CAF#7)	drug sensitivity score (LNCAP)	drug sensitivity score (PF179T)	drug sensitivity score (WPMY-1)
COc1ccc(C[C@H](NC(=O)[C@H](C)NC(=O)CN2CCOCC2)C(=O)N[C@@H](Cc2ccccc2)C(=O)C2(C)CO2)cc1 (stereo in doubt) [ONX-0914] (tested concentration range 1-10000 nM)	18	14	16	15.5	10.3	18.3	15	15.6	19.3	14.8	23.4
Cc1ccc(C(=O)N(CCCN)[C@@H](c2oc3cc(Cl)ccc3c(=O)c2Cc2ccccc2)C(C)C)cc1 (tested concentration range 0-100 nM)	3.6	1.6	7.1	0.4	2.5	4.3	1.6	1.3	19.3	2.9	4
CNS(=O)(=O)Nc1nccc(Cc2c(C)c3ccc(Oc4ncccn4)cc3oc2=O)c1F (tested concentration range 0.1-1000 nM)	0.2	0	0	0	0	0	0	0	1.1	0	0
C[C@@H](Oc1ccc2[nH]nc(/C=C/c3cnn(CCO)c3)c2c1)c1c(Cl)cncc1Cl (tested concentration range 0.1-1000 nM)	2.9	9.7	7.2	9.9	5.7	6.7	10.9	18.7	2.5	8.9	8
Cc1c(-c2c(-c3ccc(F)o3)sc3ncnc(O[C@H](Cc4ccccc4OCc4ccnn4CC(F)(F)F)C(=O)O)c23)ccc(OCCN2CCN(C)CC2)c1Cl (tested concentration range 0.1-1000 nM)	0.7	0	0	0	0	0	0	0	0	0	0
Cc1c(-c2ccc(N3CCc4cccc(C(=O)Nc5nc6ccccc6s5)c4C3)nc2C(=O)O)cnn1CC12CC3CC(CC(C3)C1)C2 (tested concentration range 0.1-1000 nM)	0	0	0	0	3.1	0	4.2	0.4	4.4	0	0
CO[C@@H](C)Cn1c(=O)n(C)c2cnc3ccc(-c4cncc(C(C)(C)O)c4)cc3c21 (tested concentration range 0.2-2500 nM)	16.8	14.1	13.5	10.3	10.7	14.5	10.9	10.5	16.8	14.1	12
Cc1cccc(CC(=O)N2CCc3c2ccc(-c2cn(C)c4ncnc(N)c24)c3F)n1 (tested concentration range 0.2-2500 nM)	0.1	0	0	0	0	0	0	0	0.7	0	0
Cc1ncc(Cl)cc1NCc1ccc(C(=O)N[C@@H](CC2CCCC2)C(=O)NC2CC2)s1 (tested concentration range 0.5-5000 nM)	0	0	3	0.4	0.6	2.1	0	1.2	2	3.7	0
CC(C)Oc1ccc(C(=O)N[C@H](CNC(=O)CN(C)C)Cc2ccc(-c3cn4cccc([C@H](C)O)c4n3)cc2)cc1Cl (tested concentration range 1-10000 nM)	10.9	1.4	9.8	2.5	5.5	3	3.2	2.4	19.1	9	24.5
CCc1cncnc1N1CCN(Cc2nc3ccc(C(F)(F)F)cc3[nH]2)CC1 (tested concentration range 1-10000 nM)	2.9	1.8	2.4	7.6	1.1	1.6	0.5	0.9	4	0	1.7
CCn1c(-c2nonc2N)nc2c(C#CC(C)(C)O)ncc(OC[C@H]3CCCNC3)c21 (tested concentration range 1-10000 nM)	5.4	3.8	3.3	0	1.2	1.6	0	0	25.7	1.9	0
CCn1c(-c2nonc2N)nc2cnc(Oc3cccc(NC(=O)c4ccc(OCCN5CCOCC5)cc4)c3)cc21 (tested concentration range 1-10000 nM)	4.7	3.2	3.3	0.2	0.6	1.2	2.8	4.7	8.1	0.9	6.8
CN(C)CC#Cc1ccc(OCCCc2sc(N3CCc4cccc(C(=O)Nc5nc6ccccc6s5)c4C3)nc2C(=O)O)c(F)c1 (tested concentration range 1-10000 nM)	0	2.7	2.3	0.2	14.4	3.2	5.6	4.1	6.1	0	1.4
CN1CCN(C2CCC(n3cc(-c4ccc(Oc5ccccc5)cc4)c4c(N)ncnc43)CC2)CC1 (centres undefined) (tested concentration range 1-10000 nM)	9.1	12.2	14.6	11.2	13.6	11.5	11.7	16.6	8.3	9.3	10.1
CNc1nc(-c2ccc3c(N)n[nH]c3c2)cc(N2C[C@@H](C(=O)NC3CCCCC3)CC[C@H]2C)n1 (tested concentration range 1-10000 nM)	6.4	4	1.1	6.6	2.4	5.8	4	3.8	7.5	0	1.4
CNc1ncc2cc(-c3cc(NC(=O)NCCC(C)(C)C)c(F)cc3C)c(C)nc2n1 (tested concentration range 1-10000 nM)	8.5	7.4	11	1.6	9.2	7.2	6.3	8	10.4	6.7	5.6
COc1ccc(Cn2ccc3ccc(C(=O)NO)cc32)cc1 (tested concentration range 1-10000 nM)	2.8	2.8	3.1	2.9	1.4	1.4	4.1	4	5.5	4.8	2.8
Cc1c(Cn2c(C)nc3c(C(=O)O)cc(N4CCOCC4)cc32)cccc1C(F)(F)F (tested concentration range 1-10000 nM)	0	2.6	0.4	6.2	1.3	0.1	2.1	5.1	12.4	2.1	0
N#Cc1ccc(COC[C@H]2O[C@@H](n3c(NCc4ccc(Cl)c(Cl)c4)nc4c(N)ncnc43)[C@H](O)[C@@H]2O)cc1 (tested concentration range 1-10000 nM)	6.9	3.7	5.7	0.6	5.7	4.7	1.8	4.5	5	4.4	1.9
Nc1nccc(-c2c(-c3ccc(F)cc3)ncn2C2CCCCC2)n1 (tested concentration range 1-10000 nM)	6.1	0	0.6	2.1	0.1	0	0	0	4.6	0	0
Nc1ncnc2c1c(COc1cccc(Cl)c1)nn2C1CCOCC1 (tested concentration range 1-10000 nM)	0	2.5	2.1	2.8	0	1.8	0.6	1	2.3	0	0
O=C(O)c1ccc(-c2c[nH]c3ncc(-c4ccccc4)cc23)cc1C1CCCC1 (tested concentration range 1-10000 nM)	0	0	2.3	0	0	0.8	0	0	0	0.1	2.4
O=c1[nH]c(C2CCCN2)nc2c1oc1ccc(Cl)cc12 (centres undefined) (tested concentration range 1-10000 nM)	0.6	0	0	1.6	0	0	0	0	2.7	0	3.3
CC1(C)OCCn2c1nc1c(N3CCOCC3)nc(-c3cnc(N)nc3)nc12 [Paxalisib] (tested concentration range 1-10000 nM)	18.1	16	–	–	13	18.3	–	–	13.5	–	–
